Measured values taken from patent EP0559625B1, “Esters of L-carnitine and acyl L-carnitine endowed with muscle relaxant activityselective on gastrointestinal tract and pharmaceutical compositions containing same” (Sigma-Tau Industrie Farmaceutiche Riunite S.p.A., priority 1992, dated 1993).

What was measured:
[1] = target: sites associated to calcium channels labeled by ^3H-Nitrendipine; test: Binding to Ca++ channel sites labelled by 3H-Nitrendipine in rat brain; conditions: rat brain cortex membranes; ^3H-Nitrendipine 0.5 nM, 60' at 30°C; inactive at 10^-5 M not tested higher; read-out: IC50 Uptake sites of Ca^++ channels labelled with ^3H-Nitrendipine
Protocol: (§1) The "binding" of the tested compounds to the sites associated to calcium channels labeled by ^3H-Nitrendipine, ^3H-Verapamil and ^3H-Diltiazem has been assayed in rat brain according to the method of Schoemaker H. et al. Eur. J. Pharmacol. 111, 273 (1985) and of Reynolds I.J. et al. Eur. J. Pharmacol. 95, 319 (1983).
(§2) Brain cortices are removed from decollated male CrI: CD (SD) BR rats weighing 250-300 g.
(§3) The tissues were homogenized in Tris-HCl buffer and centrifuged at 50000 x g for 10 minutes. The pellet was washed twice through a fresh buffer suspension and centrifuged at 50000 x g for 10 minutes.
(§4) After suspension of the precipitate in the incubation buffer the compounds under examination were added to the medium, starting from a concentration 10^-5 M. Incubation conditions were: ^3H-Nitrendipine (0.5 nM) x 60' at 30°C; ^3H-Verapamil (10 µM) x 20' at 37°C; and ^3H-d-cis Diltiazem (4 nM) x 60' at 30°C. Final volume was 1 ml. Incubation was stopped by rapid filtration under vacuum through GF/B (0.1% […]) fiber filters which were washed with cold incubation buffer (3 x 3 ml) using the system of filtration Brandel Cell Harvester. Filters were put in 8 ml of Optifluor (Packard) and the radioactivity bound to the membranes trapped by fibers counted by liquid scintillation spectrometer TRI-CARB 1900 CA (Packard). The counting efficiency was about 50%.
(§5) The percentage inhibition of the specific ^3H-ligand binding to its respective receptors was calculated for each concentration (mean of three incubates).
(§6) The competition curve, the slope of the curve and IC50^± standard deviation values (drug concentration that reduces specific ^3H-ligand binding to its respective receptors by 50% of its maximum value) were calculated by using the "Allfit" program (De Lean A. et al., Am. J. Physiol. 235, E97, 1978) running on an IBM 55-SH.

[2] = target: sites associated to calcium channels labeled by ^3H-Verapamil; test: Binding to Ca++ channel sites labelled by 3H-Verapamil in rat brain; conditions: rat brain cortex membranes; ^3H-Verapamil (10 µM), 20' at 37°C; read-out: IC50 Uptake sites of Ca^++ channels labelled with ^3H-Verapamil
Protocol: as §1, §2, §3, §4, §5, §6

[3] = target: sites associated to calcium channels labeled by ^3H-Diltiazem; test: Binding to Ca++ channel sites labelled by 3H-Diltiazem in rat brain; conditions: rat brain cortex membranes; ^3H-d-cis Diltiazem 4 nM, 60' at 30°C; read-out: IC50 Uptake sites of Ca^++ channels labelled with ^3H-Diltiazem
Protocol: as §1, §2, §3, §4, §5, §6

mice = test: Assessment of behaviour and mortality in mice (Irwin's method); format: in vivo; conditions: for Death rate: dead/treated, 4 animals/dose; for Symptoms: n.e. = no effect, (*) = in connection with death rate only
Protocol: The assessment of normal behaviour in mice was carried out following S. Irwin's method, Psychopharmacologia 13, 222 (1968). This method allows alterations in some behavioural, neurophysiologic and neurovegetative parameters to be detected, which are directly observable by the researcher. The study was conducted using male CrI: (CD-I)(ICR)BR mice (Charles River - Italy) weighing 22-25 g, following oral administration of the compounds suspended in carboxymethylcellulose (0.5% by weight in H2O) to groups of 4 animals/dose.
The animals were continuously kept under observation for five hours following treatment and twice a day in the subsequent five days. Mortality was also observed during the overall test period. The initial dose was 1000 mg/kg per os; lower doses were administered in case of death or if the initial dose brought about an excessive response.

Rat portal vein = test: Rat portal vein: contractions evoked by high K+ concentrations; conditions: at a concentration of 10 mg/ml
Excerpt: The effect of the compound on the contractions evoked by high K^+ concentrations in the rat portal vein has been tested according to Shetty S.S. et al., Europ. J. Pharm. 141, 485 (1989).

[4] = tested on: conscious spontaneously hypertensive rats (SHR); test: Effect on blood pressure and heart rate in conscious SHR; format: in vivo; conditions: oral 100 mg/kg, 1, 2 and 4 hours after administration
Protocol: The effect of the substance has been tested after oral administration of 100 mg/kg to conscious spontaneously hypertensive rats (SHR). No changes of blood pressure and heart rate were observed 1, 2 and 4 hours after the administration. The experimental procedure was run according to Yeer T.T. et al, Life Sciences 22, 359 (1978).

SMILES | IC50 [1] [nM] | IC50 [2] [nM] | IC50 [3] [nM] | Death rate (mice; dose 100 (mg/kg per os)) | Symptoms (mice; dose 100 (mg/kg per os)) | Death rate (mice; dose 300 (mg/kg per os)) | Symptoms (mice; dose 300 (mg/kg per os)) | Death rate (mice; dose 600 (mg/kg per os)) | Symptoms (mice; dose 600 (mg/kg per os)) | Death rate (mice; dose 1000 (mg/kg per os)) | Symptoms (mice; dose 1000 (mg/kg per os)) | effect on the contractions evoked by high K^+ concentrations in the rat portal vein (Rat portal vein) | changes of blood pressure [4] | changes of heart rate [4]
CCCCCCCOC(=O)C[C@H](C[N+](C)(C)C)OC(=O)CC(C)C [ST 697] | > 10000 | 1500 | 500 | 0/4 | n.e. | 1/4 | convulsions (*) | 2/4 | convulsions (*) | 4/4 | convulsions (*) | – | – | –
CCCCCCCCCCCOC(=O)C[C@H](C[N+](C)(C)C)OC(=O)C(C)C [ST 712, Isobutyryl L-carnitine undecyl ester chloride] | 5300 | 2800 | 1200 | – | – | – | – | – | – | 0/4 | n.e. | – | – | –
CC(C)COC(=O)C[C@H](C[N+](C)(C)C)OC(=O)CC(C)C [ST 684] | > 10000 | 1600 | 7800 | – | – | – | – | – | – | 0/4 | n.e. | – | – | –
CCCCCCCOC(=O)C[C@H](C[N+](C)(C)C)OC(C)=O [ST 904, acetyl L-carnitine heptyl ester chloride] | > 10000 | 3200 | > 10000 | – | – | 0/4 | n.e. | 2/4 | convulsions (*) | 4/4 | convulsions (*) | – | – | –
CCCCCCCCCCCOC(=O)C[C@H](C[N+](C)(C)C)OC(=O)CC(C)C [ST 722, isovaleryl L-carnitine undecyl ester chloride] | 1600 | 380 | 1400 | – | – | – | – | – | – | 0/4 | salivation, diarrhea | inactive | No changes | No changes
CCCCCCCOC(=O)C[C@H](C[N+](C)(C)C)OC(=O)C(C)C [ST 713, isobutyryl L-carnitine heptyl ester chloride] | > 10000 | 1200 | 1300 | 0/4 | n.e. | 2/4 | convulsions (*) | 3/4 | convulsions (*) | 4/4 | convulsions (*) | – | – | –
CCCCOC(=O)C[C@H](C[N+](C)(C)C)OC(=O)CC(C)C [ST 683] | > 10000 | 2400 | 15000 | – | – | 0/4 | n.e. | 2/4 | convulsions (*) | 4/4 | convulsions (*) | – | – | –
CC(C)COC(=O)C[C@H](C[N+](C)(C)C)OC(=O)C(C)C [ST 305] | 33000 | 3500 | > 10000 | – | – | – | – | – | – | 0/4 | n.e. | – | – | –
